Data set [1] in a line: in vivo. As to conditions: mouse, oral, mice.
Data set [2] concerns human platelet. The experiment in a line: human platelet aggregation in vitro induced by ADP or adrenaline (CPRP). Type of data set: cell-based. The following applies: 200 s. How it is done: Samples of human CPRP (citrated platelet-rich plasma) were incubated at 37°C. for 200 sec. with 1/10 volume of saline containing various amount of the compound to be tested. To the mixture was then added ADP (3μMole) or adrenaline (1 μg/ml). Intensity of primary and secondary aggregation was measured with a platelet aggregation meter (Chrono-Log, Model 300).
Intensity of ADP- or adrenaline-induced aggregation of each sample, which was incubated with the compound, was compared with that of the same sample incubated with saline. The ratio was expressed as a percentage of intensity of aggregation with the compound against one with saline.
The intensity of primary and secondary aggregation of platelets was measured by the procedure described in H. Yamazaki, T. Sano, et al.; title[Platelet Functions in Thromboembolic Disorders] Thrombosis et Diatheses Haemorrhagica "in press" and the references cited therein.

Data set [3] relates to aorta of rabbits. The experiment in a line: prevention of cholesterol-induced atherosclerosis in rabbits (surface covered by fatty streaks in the aorta). In kind it is in vivo, albino rabbits. The following applies: rabbit aorta; oral 1 mg/Kg daily, 15 weeks, diet with 1% cholesterol; placebo 54.6±5.4. How it is done:
Forty healthy albino rabbits of the same age and of the same family were used in the experiment.
After the completion of the regimen, the rabbits were killed and the percentage of the surface covered by fatty streaks was measured in each aorta of the rabbits stained with Sundan IV. The percent of the surface covered by fatty streaks in the aorta of the rabbits was measured by the procedure described in T. Shimamoto, F. Numano, T. Fujita; American Heart Journal, 71, 2216 (1966).

For data set [4], the system named is spontaneously hypertensive rats. In words: hypotensive effect in spontaneously hypertensive rats. Type of data set: in vivo, rat. From the text: The present compounds have a unique hypotensive effect in spontaneously hypertensive rats. The spontaneously hypertensive rats, abbreviated as SH rats, are produced by selective breeding of spontaneously hypertensive rats and continuous inbreeding with hypertensive mates, and they might be acknowledged as genetically hypertensive. It is believed that SH rats have a striking similarity to human essential hypertension and their reactions can be extrapolated to this morbid condition.
In the blood pressure test, SH rats weighing 210 - 250 g and aged 13-15 weeks were used, and the compounds tested were administered intraperitoneally. Each value in the Table V hows an average figure for three rats.

For data set [5], the system named is cyclic AMP phosphodiesterase. In words: inhibition of cyclic AMP phosphodiesterase, human platelet. In kind it is biochemical. The following applies: 50% inhibition of cyclic AMP phosphodiesterase; read-out: I50, Platelet (human). How it is done: (§1) The procedure of the experiment was carried out in accordance with the method described in H. Hidaka and M. Shibuya: title "A new assay of cyclic nucleotide phosphodiesterase and its application to humans", Biochemical Medicine, (in press).

Data set [6] concerns the target cyclic AMP phosphodiesterase. The experiment in a line: inhibition of cyclic AMP phosphodiesterase, aortic wall intima (rabbit). In kind it is biochemical. As to conditions: 50% inhibition of cyclic AMP phosphodiesterase; read-out: I50, Aortic Wall, Intima (rabbit). How it is done: as §1
Data set [7] has as its system aortic wall of rabbits. In words: regression of preestablished cholesterol-induced atherosclerosis in rabbits (cholesterol content of the aortic wall). In kind it is in vivo, albino rabbits. As to conditions: oral 1 mg/Kg daily, head prints (μg). From the text: For the regressive test, 50 healthy albino rabbits were fed with a diet containing 1% cholesterol for 15 weeks. Five rabbits were killed at the 15th week of the cholesterol feeding and the remaining 45 rabbits were divided into 3 groups. […] Five each of the rabbits of the 3 groups were killed after 6, 10 and 20 weeks, respectively. The total contents of cholesterol in the aortic wall were estimated by gas chromatography, the results of which are shown in the Table III.
1. The total content of cholesterol in the aortic wall was measured by the procedure described in T. Shimamoto, F. Numano, T. Fujita et al.; Asian med. Journal, 8. 12 (1965) 2. […] 3. The total chloesterol contents indicated in Table III were shown in μg per one mg of the dried aortic wall. The value in the Table is the average figure for 5 rabbits

Data set [8] deals with cyclic AMP phosphodiesterase. In words: inhibition of cyclic AMP phosphodiesterase, aortic wall media (rabbit). The following applies: 50% inhibition of cyclic AMP phosphodiesterase; read-out: I50, Aortic Wall, Media (rabbit). In kind it is biochemical. How it is done:
as §1

[9] abbreviates: 40 μg/ml, intensity with compound vs saline, read-out: Inhibition ratio, primary aggregation, ADP 3 μM.
The mark [10] stands for this setting: 40 μg/ml, intensity with compound vs saline, read-out: Inhibition ratio, secondary aggregation, ADP 3 μM.
Setting [11] is: 80 μg/ml, intensity with compound vs saline, read-out: Inhibition ratio, primary aggregation, ADP 3 μM.
The mark [12] stands for this setting: 80 μg/ml, intensity with compound vs saline, read-out: Inhibition ratio, secondary aggregation, ADP 3 μM.
Where [13] appears, read: 300 μg/ml, intensity with compound vs saline, read-out: Inhibition ratio, primary aggregation, ADP 3 μM.
[14] abbreviates: 300 μg/ml, intensity with compound vs saline, read-out: Inhibition ratio, secondary aggregation, ADP 3 μM.
The mark [15] stands for this setting: read-out: Inhibition ratio, primary aggregation, Adrenaline 1μg/ml.
The mark [16] stands for this setting: read-out: Inhibition ratio, secondary aggregation, Adrenaline 1μg/ml.
The mark [17] stands for this setting: 50 mg/Kg intraperitoneally, 1 hr.
Setting [18] is: 50 mg/Kg intraperitoneally, 3 hr.
The mark [19] stands for this setting: 50 mg/Kg intraperitoneally, 6 hr.
[20] abbreviates: 50 mg/Kg intraperitoneally, 24 hr.
Where [21] appears, read: 50 mg/Kg intraperitoneally, 48 hr.
Where [22] appears, read: 50 mg/Kg intraperitoneally, before dosing.
[23] abbreviates: 3.1 mg/Kg intraperitoneally, 1 hr.
Setting [24] is: 3.1 mg/Kg intraperitoneally, 3 hr.
The mark [25] stands for this setting: 3.1 mg/Kg intraperitoneally, 6 hr.
[26] abbreviates: 3.1 mg/Kg intraperitoneally, 24 hr.
Setting [27] is: 3.1 mg/Kg intraperitoneally, 48 hr.
Setting [28] is: 12.5 mg/Kg intraperitoneally, 1 hr.
Setting [29] is: 12.5 mg/Kg intraperitoneally, 3 hr.
[30] abbreviates: 12.5 mg/Kg intraperitoneally, 6 hr.
Where [31] appears, read: 12.5 mg/Kg intraperitoneally, 24 hr.
Where [32] appears, read: 12.5 mg/Kg intraperitoneally, 48 hr.

Like-named read-outs stand apart in the source and are kept apart here.

Consider five compounds from US3963716A, “Novel 1-phthalazone derivative, a process for its preparation and a pharmaceutical composition containing it” (priority 1973, dated 1976).

Usually LD50 stands for the dose expected to kill half of the subjects tested. Read a low LD50 as greater toxicity.

In data set [1], `O=c1[nH]nc(CO)c2ccccc12` [4-hydroxymethyl-1-phthalazone] showed an LD50 of 4000 mg/kg. Also, the activity at 40 µg/mL in data set [2] (setting [9]) amounted to 86.2 ± 2.5%; in data set [2] (setting [10]), 72 ± 6.8%; in data set [2] (setting [15]), 98.8 ± 5.9%; in data set [2] (setting [16]), 85.9 ± 10.1%. Moreover, the activity at 80 µg/mL in data set [2] (setting [11]) was 82.4 ± 3.2%; in data set [2] (setting [12]), 64.9 ± 6.7%; in data set [2] (setting [15]), 92.3 ± 6%; in data set [2] (setting [16]), 69.2 ± 7.2%. The activity at 300 µg/mL stood at 84.5 ± 2% in data set [2] (setting [13]), 68.3 ± 3.8% in data set [2] (setting [14]), 85.4 ± 3.1% in data set [2] (setting [15]) and 60.2 ± 8% in data set [2] (setting [16]). Moreover, in data set [3], the “Percent of surface covered by fatty streaks” value came to 36.8±5.2%. The “Blood Pressure” value is 178 in data set [4] (setting [17]); 179 in data set [4] (setting [18]); 180 in data set [4] (setting [19]); 182 in data set [4] (setting [20]); 184 in data set [4] (setting [21]); 183 in data set [4] (setting [22]). Moreover, in data set [4] (intraperitoneal or oral doses up to 50 mg/Kg), the “hypotensive effect (in words)” value was “did not exhibit a significant hypotensive effect”.

For `CCOC(=O)c1c(C)cc2c(CO)n[nH]c(=O)c2c1C` [6,8-dimethyl-7-ethoxycarbonyl-4-hydroxymethyl-1-phthalazone], the IC50 in data set [5] is 4.1 µM; in data set [6], 1600 nM; in data set [8], 24 µM. In addition, the “Cholesterol content (aortic wall, total)” value was determined as 20.8±3.1 μg/mg dry weight in data set [7] (6 weeks, placebo 32.1±3.6); 9.7±4.2 μg/mg dry weight in data set [7] (10 weeks, placebo 33.8±3.0); 4.2±1.8 μg/mg dry weight in data set [7] (20 weeks, placebo 29.5±5.4). The activity at 2.5 µg/mL in data set [2] (2.5 μg/ml, intensity with compound vs saline, read-out: Inhibition ratio, primary aggregation, ADP 3 μM) was determined as 91.7 ± 8.3%; in data set [2] (2.5 μg/ml, intensity with compound vs saline, read-out: Inhibition ratio, secondary aggregation, ADP 3 μM) it was 96 ± 8.7%; in data set [2] (setting [15]) it was 88.5 ± 3.1%; in data set [2] (setting [16]), 52.8 ± 7.5%. The activity at 5 µg/mL in data set [2] (5 μg/ml, intensity with compound vs saline, read-out: Inhibition ratio, primary aggregation, ADP 3 μM) stood at 93.3 ± 8.9%; in data set [2] (5 μg/ml, intensity with compound vs saline, read-out: Inhibition ratio, secondary aggregation, ADP 3 μM), 59.8 ± 11.3%; in data set [2] (setting [15]) it was 82.4 ± 3%; in data set [2] (setting [16]), 52.4 ± 7.3%. Also, the activity at 10 µg/mL in data set [2] (10 μg/ml, intensity with compound vs saline, read-out: Inhibition ratio, primary aggregation, ADP 3 μM) is 90.6 ± 3.8%; in data set [2] (10 μg/ml, intensity with compound vs saline, read-out: Inhibition ratio, secondary aggregation, ADP 3 μM), 49.9 ± 6.9%; in data set [2] (setting [15]), 89.1 ± 7.3%; in data set [2] (setting [16]) it was 57.1 ± 16%. In addition, the activity at 20 µg/mL in data set [2] (20 μg/ml, intensity with compound vs saline, read-out: Inhibition ratio, primary aggregation, ADP 3 μM) was 93.1 ± 8.2%; in data set [2] (20 μg/ml, intensity with compound vs saline, read-out: Inhibition ratio, secondary aggregation, ADP 3 μM), 56.2 ± 6.3%; in data set [2] (setting [15]), 97.5 ± 7.5%; in data set [2] (setting [16]), 99.6 ± 13.2%. Moreover, the activity at 40 µg/mL came out at 68.5 ± 5.2% in data set [2] (setting [9]) and 41.9 ± 2.2% in data set [2] (setting [10]). Besides, the “Percent of surface covered by fatty streaks” value in data set [3] is reported as 16.2±4.3%. Further, the “Blood Pressure” value is on record as 170 in data set [4] (setting [23]); 138 in data set [4] (setting [24]); 110 in data set [4] (setting [25]); 135 in data set [4] (setting [26]); 150 in data set [4] (setting [27]); 173 in data set [4] (3.1 mg/Kg intraperitoneally, before dosing). In addition, the “Blood Pressure” value in data set [4] (setting [28]) is recorded as 173; in data set [4] (setting [29]), 155; in data set [4] (setting [30]), 120; in data set [4] (setting [31]), 142; in data set [4] (setting [32]) it was 155; in data set [4] (12.5 mg/Kg intraperitoneally, before dosing), 175. Besides, the “Blood Pressure” value in data set [4] (setting [17]) came to 165; in data set [4] (setting [18]) it was 132; in data set [4] (setting [19]), 110; in data set [4] (setting [20]), 145; in data set [4] (setting [21]), 152; in data set [4] (setting [22]) it was 170. Further, the “Depression % (blood pressure)” value in data set [4] (setting [23]) came out at 1.7%; in data set [4] (setting [24]), 20.2%; in data set [4] (setting [25]), 36.4%; in data set [4] (setting [26]), 22.0%; in data set [4] (setting [27]), 13.3%; in data set [4] (setting [28]), 1.1%. For the same compound, the “Depression % (blood pressure)” value came to 11.4% in data set [4] (setting [29]); 28.6% in data set [4] (setting [30]); 18.9% in data set [4] (setting [31]); 11.4% in data set [4] (setting [32]); 2.9% in data set [4] (setting [17]); 22.4% in data set [4] (setting [18]). For the same compound, the “Depression % (blood pressure)” value amounted to 35.3% in data set [4] (setting [19]), 14.7% in data set [4] (setting [20]) and 10.6% in data set [4] (setting [21]).

Turning to `CC(=O)Oc1ccccc1C(=O)O` [Acetylsalicylic acid], the activity at 40 µg/mL was 98.9 ± 3.4% in data set [2] (setting [9]); 106 ± 3.3% in data set [2] (40 μg/ml, intensity with compound vs saline, read-out: Inhibition ratio, primary aggregation, Adrenaline 1μg/ml); 78 ± 9.9% in data set [2] (setting [10]); 45 ± 7.8% in data set [2] (40 μg/ml, intensity with compound vs saline, read-out: Inhibition ratio, secondary aggregation, Adrenaline 1μg/ml). Also, the activity at 80 µg/mL in data set [2] (setting [11]) is 95.7 ± 1.8%; in data set [2] (80 μg/ml, intensity with compound vs saline, read-out: Inhibition ratio, primary aggregation, Adrenaline 1μg/ml) it was 95.6 ± 5.2%; in data set [2] (setting [12]), 70.2 ± 10.1%; in data set [2] (80 μg/ml, intensity with compound vs saline, read-out: Inhibition ratio, secondary aggregation, Adrenaline 1μg/ml), 46.5 ± 7.9%. Moreover, the activity at 300 µg/mL in data set [2] (setting [13]) was 109 ± 3.6%; in data set [2] (300 μg/ml, intensity with compound vs saline, read-out: Inhibition ratio, primary aggregation, Adrenaline 1μg/ml), 108 ± 2.6%; in data set [2] (setting [14]) it was 75.5 ± 5.9%; in data set [2] (300 μg/ml, intensity with compound vs saline, read-out: Inhibition ratio, secondary aggregation, Adrenaline 1μg/ml), 62.7 ± 10.7%.

For `Cn1c(=O)c2c(ncn2C)n(C)c1=O` [caffeine], the IC50 was 350 µM in data set [5] and 460 µM in data set [8].

`Cn1c(=O)c2[nH]cnc2n(C)c1=O` [theophylline]: in data set [5], the IC50 was determined as […].
